Test results published in patent US20120178765A1, “NOVEL GLUCOKINASE ACTIVATORS AND PROCESSES FOR THE PREPARATION THEREOF” (YUHAN CORPORATION, priority 2009, published 2012).
Counter-ions that a name gives are not always drawn.

Biological target: T1, Glucokinase (Homo sapiens, UniProt P35557)
T1 construct: purchased ProteinOne Inc
T1 sequence (P35557 1-465): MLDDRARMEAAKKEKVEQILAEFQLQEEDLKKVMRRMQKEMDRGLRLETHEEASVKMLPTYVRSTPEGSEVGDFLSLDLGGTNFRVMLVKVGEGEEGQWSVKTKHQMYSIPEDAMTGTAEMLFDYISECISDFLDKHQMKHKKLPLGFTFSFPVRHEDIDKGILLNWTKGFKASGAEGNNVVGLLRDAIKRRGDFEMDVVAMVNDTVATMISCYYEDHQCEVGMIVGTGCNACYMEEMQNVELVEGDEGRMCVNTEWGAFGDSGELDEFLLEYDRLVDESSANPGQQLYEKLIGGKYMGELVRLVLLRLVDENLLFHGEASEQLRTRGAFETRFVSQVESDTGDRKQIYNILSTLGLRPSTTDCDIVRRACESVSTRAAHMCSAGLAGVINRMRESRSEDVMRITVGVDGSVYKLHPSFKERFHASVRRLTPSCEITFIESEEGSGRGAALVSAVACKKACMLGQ
Experiment: Glucokinase activation assay (NADPH absorbance at 340 nm)
Format: biochemical
Details: glucokinase (ProteinOne Inc.), 5 mM D(+)-glucose, 24° C., 90 minutes
Procedure, shortened: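 Glucokinase (100 ng/uL) coupled to G6PDH in 25 mM HEPES pH 7 with 5 mM D(+)-glucose, 1 mM ATP, 1 mM NADP; compounds added.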

In order of falling EC50:
1. 3-[2-(4-fluorophenyl)ethyl]-5-(2-methoxy-(1S)-methyl-ethoxy)-N-(pyrazin-2-yl)-benz amide [Example 108]  465 nM
2. 3-{2-[4-(4-chlorobenzoylamino)phenyl]ethyl}-5-(2-methoxy-(1S)-methyl-ethoxy)-N-(thiazol-2-yl)-benzamide [Example 140]  440 nM
3. 3-[trans-2-(4-bromophenyl)vinyl]-5-(2-methoxy-(1S)-methyl-ethoxy)-N-(pyrazin-2-yl)-benzamide [Example 60]  397 nM
4. COC[C@H](C)Oc1cc(/C=C/c2cccc(F)c2F)cc(C(=O)Nc2ccc(C(=O)OC)cn2)c1 [Example 66, 3-[trans-2-(2,3-difluorophenyl)vinyl]-5-(2-methoxy-(1S)-methyl-ethoxy)-N-(nicotinic acid-3-methyl ester-6-yl)-benzamide]  387 nM
5. 3-[2-(3-butyrylaminophenyl)ethyl]-5-(2-methoxy-(1S)-methyl-ethoxy)-N-(thiazol-2-yl)-benzamide [Example 119]  370 nM
6. COC[C@H](C)Oc1cc(/C=C/c2cc(F)ccc2F)cc(C(=O)Nc2ccc(C(=O)OC)cn2)c1 [Example 68, 3-[trans-2-(2,5-difluorophenyl)vinyl]-5-(2-methoxy-(1S)-methyl-ethoxy)-N-(nicotinic acid-3-methyl ester-6-yl)-benzamide]  355 nM
7. 3-[2-(2-fluorophenyl)ethyl]-5-(2-methoxy-(1S)-methyl-ethoxy)-N-(pyrazin-2-yl)-benz amide [Example 107]  333 nM
8. 3-{2-[4-(3-phenyl-ureido)phenyl]ethyl}-5-(2-methoxy-(1S)-methyl-ethoxy)-N-(thiazol-2-yl)-benzamide [Example 145]  319 nM
9. 3-[2-(2-acetylaminophenyl)ethyl]-5-(2-methoxy-(1S)-methyl-ethoxy)-N-(thiazol-2-yl)benzamide [Example 116]  318 nM
10. 3-[2-(4-methoxyphenyl)ethyl]-5-(2-methoxy-(1S)-methyl-ethoxy)-N-(1-methyl-1H-pyrazol-3-yl)-benzamide [Example 100]  314 nM
11. COC[C@H](C)Oc1cc(/C=C/c2ccccc2OC)cc(C(=O)Nc2ccc(C(=O)OC)cn2)c1 [Example 61, 3-[trans-2-(2-methoxyphenyl)vinyl]-5-(2-methoxy-(1S)-methyl-ethoxy)-N-(nicotinic acid-3-methyl ester-6-yl)-benzamide]  276 nM
12. 3-[2-(2,4-dimethoxyphenyl)ethyl]-5-(2-methoxy-(1S)-methyl-ethoxy)-N-(1-methyl-1H-pyrazol-3-yl)-benzamide [Example 104]  223 nM
13. COc1ccc(/C=C/c2cc(OCC(C)C)cc(C(=O)Nc3nccs3)c2)cc1OC [Example 4, 3-[trans-2-(3,4-dimethoxyphenyl)vinyl]-5-isobutoxy-N-(thiazol-2-yl)-benzamide]  222 nM
14. COC[C@H](C)Oc1cc(CCc2ccccc2F)cc(C(=O)Nc2ccn(C)n2)c1 [Example 94, 3-[2-(2-fluorophenyl)ethyl]-5-(2-methoxy-(1S)-methyl-ethoxy)-N-(1-methyl-1-pyrazol-3-yl)-benzamide]  217 nM
15. 3-[2-(4-fluorophenyl)ethyl]-5-(2-methoxy-(1S)-methyl-ethoxy)-N-(1-methyl-1H-pyrazol-3-yl)-benzamide [Example 98]  216 nM
16. COC[C@H](C)Oc1cc(CCc2cccc(NC(=O)c3ccncc3)c2)cc(C(=O)Nc2nccs2)c1 [Example 128, 3-[2-(3-isonicotinamidephenyl)ethyl]-5-(2-methoxy-(1S)-methyl-ethoxy)-N-(thiazol-2-yl)-benzamide]  200 nM
17. CC(C)COc1cc(/C=C/c2ccc(F)cc2)cc(C(=O)Nc2nccs2)c1 [Example 2, 3-[trans-2-(4-fluorophenyl)vinyl]-5-isobutoxy-N-(thiazol-2-yl)-benzamide]  172 nM
18. Cc1ccc(/C=C/c2cc(OCC(C)C)cc(C(=O)Nc3nccs3)c2)cc1 [Example 1, 3-[trans-2-(p-tolyl)vinyl]-5-isobutoxy-N-(thiazol-2-yl)-benzamide]  164 nM
19. 3-[trans-2-(2,3-difluorophenyl)vinyl]-5-(2-methoxy-(1S)-methyl-ethoxy)-N-(1-methyl-1H-pyrazol-3-yl)-benzamide [Example 34]  132 nM
20. 3-[trans-2-(3,4-dimethoxyphenyl)vinyl]-5-(2-methoxy-(1S)-methyl-ethoxy)-N-(5-fluorothiazol-2-yl)-benzamide [Example 30]  132 nM
21. 3-[trans-2-(3-nitrophenyl)vinyl]-5-(2-methoxy-(1S)-methyl-ethoxy)-N-(5-fluorothiazol-2-yl)-benzamide [Example 20]  123 nM
22. 3-[trans-2-(4-fluorophenyl)vinyl]-5-(2-methoxy-(1S)-methyl-ethoxy)-N-(1-methyl-1H-pyrazol-3-yl)-benzamide [Example 39]  119 nM
23. 3-[trans-2-(2-methoxyphenyl)vinyl]-5-(2-methoxy-(1S)-methyl-ethoxy)-N-(1-methyl-1H-pyrazol-3-yl)-benzamide [Example 83]  115 nM
24. 3-[trans-2-(2,4-difluorophenyl)vinyl]-5-(2-methoxy-(1S)-methyl-ethoxy)-N-(1-methyl-1H-pyrazol-3-yl)-benzamide [Example 35]  109 nM
25. 3-[2-(2-aminophenyl)ethyl]-5-(2-methoxy-(1S)-methyl-ethoxy)-N-(thiazol-2-yl)-benzamide [Example 88]  108 nM
26. 3-[trans-2-(3-chlorophenyl)vinyl]-5-(2-methoxy-(1S)-methyl-ethoxy)-N-(1-methyl-1H-pyrazol-3-yl)-benzamide [Example 47]  107 nM
27. COC[C@H](C)Oc1cc(/C=C/c2ccc(F)cc2F)cc(C(=O)Nc2ccc(C(=O)O)cn2)c1 [Example 79, 3-[trans-2-(2,4-difluorophenyl)vinyl]-5-(2-methoxy-(1S)-methyl-ethoxy)-N-(nicotinic acid-6-yl)-benzamide]  95.1 nM
28. 3-[trans-2-(2-methoxyphenyl)vinyl]-5-(2-methoxy-(1S)-methyl-ethoxy)-N-(5-fluorothiazol-2-yl)-benzamide [Example 82]  91.8 nM
29. 3-[trans-2-(2-fluorophenyl)vinyl]-5-(2-methoxy-(1S)-methyl-ethoxy)-N-(1-methyl-1H-pyrazol-3-yl)-benzamide [Example 33]  79.8 nM
30. COC[C@H](C)Oc1cc(CCc2ccccc2N)cc(C(=O)Nc2nccs2)c1 [Example 110, 3-[2-(2-aminophenyl)ethyl]-5-(2-methoxy-(1S)-methyl-ethoxy)-N-(thiazol-2-yl)-benzamide hydrochloride]  68.2 nM
31. 3-[trans-2-(2,4-difluorophenyl)vinyl]-5-(2-methoxy-(1S)-methyl-ethoxy)-N-(thiazol-2-yl)-benzamide [Example 10]  55.2 nM
32. COC[C@H](C)Oc1cc(/C=C/c2ccccc2F)cc(C(=O)Nc2nccs2)c1 (stereo in doubt) [Example 6, 3-[trans-2-(2-fluorophenyl)vinyl]-5-(2-methoxy-(1S)-methyl-ethoxy)-N-(thiazol-2-yl)-benzamide]  38.5 nM
33. 3-[2-(2,5-difluorophenyl)ethyl]-5-(2-methoxy-(1S)-methyl-ethoxy)-N-(thiazol-2-yl)-benzamide [Example 86]  36.6 nM
34. 3-[trans-2-(2,5-difluorophenyl)vinyl]-5-(2-methoxy-(1S)-methyl-ethoxy)-N-(thiazol-2-yl)-benzamide [Example 11]  30.9 nM
35. COC[C@H](C)Oc1cc(/C=C/c2c(F)cccc2F)cc(C(=O)Nc2nccs2)c1 [Example 12, 3-[trans-2-(2,6-difluorophenyl)vinyl]-5-(2-methoxy-(1S)-methyl-ethoxy)-N-(thiazol-2-yl)-benzamide]  14.7 nM
